# Assay results as given in US11098071B2, “GPR84 receptor antagonist and use thereof” (SHANGHAI INSTITUTE OF MATERIA MEDICA, CHINESE ACADEMY OF …, priority 2017, dated 2021).
# Read-outs that look alike come from different tables or passages of the source.
# Target: T1, GPR84 (Homo sapiens, UniProt Q9NQS5)
# T1 construct: expressed in transfected cells; host or cells: HEK293
# Assay: GPR84 calcium flow model (antagonism of agonist 6-OAU, Fluo-4 fluorescence)
# Assay type: cell-based
# Procedure: GPR84 antagonistic activity of the compounds of the invention was determined.
# The human GPR84 cell line was obtained by transfecting a HEK293 cell line with a plasmid encoding GPR84 and Gα16 proteins. Fluorescent dye Fluo-4AM was purchased from Invitrogen.
# Intracellular Ca^2+ ion is a very important second messenger of G protein-coupled receptor signaling pathway. […] Fluo-4 is a Ca^2+ ion-specific fluorescent probe that binds quantitatively to Ca^2+ ions and emits fluorescence. Therefore, the agonistic or antagonistic activity of the compound can be detected in a 96-well or 384-well flat-bottomed microplate using a fluorescence assay.
# Detection of receptor inhibitory effect by GPR84 antagonist: After incubated with fluorescent dye Fluo-4, GPR84 cells were incubated with different concentrations of antagonistic compounds for a period of time to occupy the binding site of agonist to GPR84 (antagonistic binding site). A certain concentration of agonist (6-OAU) was added to compete with the antagonist compound for binding sites. […] The half-inhibitory concentration (IC50) of the compound was calculated by using GraphPad PRISM software.
# The above ingredients were weighed and dissolved in ultrapure water. pH was adjusted to 7.4 by using hydrochloric acid or NaOH solution. The mixture was filtered and stored at 4° C. for one month.
# The buffer was prepared on site.
# The preparation of each milliliter of dye is as follows. 1 μL of 2 mM Fluo-4 AM was mixed with 10 μL of 3% Cremophor EL, then diluted with 1 mL of calcium buffer and mixed.
# The cells were seeded at a density of 40,000 cells/well into a 96-well cell culture plate, and cultured for 24 hours or more to a cell density of 80 to 90% for experimental detection. The culture medium in the well to be tested was removed and 40 μL/well of freshly prepared dye was added and incubated in a 37-degree incubator for 40 min to 50 min.
# The compound was formulated during cell incubation (this step can also be carried out in advance). The compound used as antagonist was diluted with calcium buffer freshly prepared before the experiment to 1.5 times of the final working concentration. The compound as agonist was diluted to 3 times of the final working concentration (if the compound is dissolved in DMSO, the final work concentration of DMSO shall not exceed 1%).
# After the incubation step was completed, the dye was discarded, and the residue was washed with calcium buffer once and then replaced with 50 μL of calcium buffer containing different concentrations of antagonist and incubated for another 10 min.
# [1] = HEK293 cell line transfected with GPR84 and Gα16, agonist 6-OAU, Fluo-4, read-out: IC50 of the compound detected by the GPR84 calcium flow model
# T1 sequence (Q9NQS5 whole entry): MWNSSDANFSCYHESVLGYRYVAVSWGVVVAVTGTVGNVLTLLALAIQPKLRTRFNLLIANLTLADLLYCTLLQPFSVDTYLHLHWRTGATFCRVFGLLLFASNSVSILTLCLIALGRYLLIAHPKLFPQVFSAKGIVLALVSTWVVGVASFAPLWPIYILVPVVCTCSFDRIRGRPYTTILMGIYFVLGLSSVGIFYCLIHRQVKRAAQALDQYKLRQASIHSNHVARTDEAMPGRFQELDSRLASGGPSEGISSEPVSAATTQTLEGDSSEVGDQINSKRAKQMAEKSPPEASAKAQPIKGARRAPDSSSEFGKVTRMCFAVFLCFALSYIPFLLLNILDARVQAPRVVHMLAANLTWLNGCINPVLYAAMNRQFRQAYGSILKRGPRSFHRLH
SMILES,IC50 [nM],IC50 [1] [nM]
O=P(O)(Oc1cc2ccccc2c2ccccc12)Oc1cc2ccccc2c2ccccc12 [CLH472],1000 to 10000,
O=P(O)(Oc1c2ccccc2cc2ccccc12)Oc1c2ccccc2cc2ccccc12 [CLH472a],100 to 1000,
O=P(O)(OC1=Cc2ccccc2Oc2ccccc21)OC1=Cc2ccccc2Oc2ccccc21 [CLH482],,100 to 1000
CN1c2ccccc2C=C(OP(=O)(O)OC2=Cc3ccccc3N(C)c3ccccc32)c2ccccc21 [CLH508],,100 to 1000
O=P(O)(OC1=Cc2ccccc2Sc2ccccc21)OC1=Cc2ccccc2Sc2ccccc21 [CLH514],,0.1 to 100
O=P(O)(O/C1=C/c2ccccc2/C=C\c2ccccc21)O/C1=C/c2ccccc2/C=C\c2ccccc21 [CLH524],,100 to 1000
C=C1c2ccccc2C=C(OP(=O)(O)OC2=Cc3ccccc3C(=C)c3ccccc32)c2ccccc21 [CLH524a],,100 to 1000
CC1c2ccccc2C=C(OP(=O)(O)OC2=Cc3ccccc3C(C)c3ccccc32)c2ccccc21 (stereo not drawn) [CLH528a],,100 to 1000
O=P(O)(OC1=CC2=C(CCCC2)Sc2ccccc21)OC1=CC2=C(CCCC2)Sc2ccccc21 [CLH544],,100 to 1000
O=P(O)(OC1=Cc2ccccc2SC2=C1CCCC2)OC1=Cc2ccccc2SC2=C1CCCC2 [CLH544a],,100 to 1000
O=P(O)(OC1=Cc2ccccc2Sc2sccc21)OC1=Cc2ccccc2Sc2sccc21 [CLH548],,0.1 to 100
COc1cccc2c1Cc1ccccc1C=C2OP(=O)(O)OC1=Cc2ccccc2Cc2c(OC)cccc21 [CLH560],,0.1 to 100
O=P(O)(OC1=Cc2ccccc2Sc2c(O)cccc21)OC1=Cc2ccccc2Sc2c(O)cccc21 [CLH568],,0.1 to 100
O=P(O)(OC1=Cc2ccccc2Sc2c(F)cccc21)OC1=Cc2ccccc2Sc2c(F)cccc21 [CLH572a],,100 to 1000
O=P(O)(OC1=Cc2ccccc2Sc2cc(F)ccc21)OC1=Cc2ccccc2Sc2cc(F)ccc21 [CLH572b],,100 to 1000
O=P(O)(OC1=Cc2ccccc2Sc2ccc(F)cc21)OC1=Cc2ccccc2Sc2ccc(F)cc21 [CLH572c],,100 to 1000
COc1cccc2c1Sc1ccccc1C=C2OP(=O)(O)OC1=Cc2ccccc2Sc2c(O)cccc21 [CLH582],,0.1 to 100
O=P(O)(OC1=Cc2ccccc2[S+]([O-])c2ccccc21)OC1=Cc2ccccc2S(=O)(=O)c2ccccc21 (stereo not drawn) [CLH584],,1000 to 10000
COc1ccc2c(c1)Sc1ccccc1C=C2OP(=O)(O)OC1=Cc2ccccc2Sc2cc(OC)ccc21 [CLH596b],,0.1 to 100
COc1ccc2c(c1)C(OP(=O)(O)OC1=Cc3ccccc3Sc3ccc(OC)cc31)=Cc1ccccc1S2 [CLH596c],,0.1 to 100
O=P(O)(OC1=Cc2ccccc2S(=O)(=O)c2ccccc21)OC1=Cc2ccccc2S(=O)(=O)c2ccccc21 [CLH600],,1000 to 10000
O=P(O)(OC1=Cc2ccccc2C2(OCCO2)c2ccccc21)OC1=Cc2ccccc2C2(OCCO2)c2ccccc21 [CLH616a],,100 to 1000
CCOc1cccc2c1Sc1ccccc1C=C2OP(=O)(O)OC1=Cc2ccccc2Sc2c(OCC)cccc21 [CLH624],,0.1 to 100
COc1cccc2c1Sc1ccccc1C=C2OP(=O)(O)OC1=Cc2cc(C(C)C(=O)O)ccc2Sc2ccccc21 (stereo not drawn) [CLH638],,0.1 to 100
CC(C)Oc1cccc2c1Sc1ccccc1C=C2OP(=O)(O)OC1=Cc2ccccc2Sc2c(OC(C)C)cccc21 [CLH652],,100 to 1000
COc1cc2c(cc1OC)C(OP(=O)(O)OC1=Cc3ccccc3Sc3cc(OC)c(OC)cc31)=Cc1ccccc1S2 [CLH656],,0.1 to 100
COc1ccc(OC)c2c1Sc1ccccc1C=C2OP(=O)(O)OC1=Cc2ccccc2Sc2c(OC)ccc(OC)c21 [CLH656a],,100 to 1000

SMILES,IC50 [nM],IC50 [1] [nM]
CCOC(=O)C(C)c1ccc2c(c1)C=C(OP(=O)(O)OC1=Cc3ccccc3Sc3c(OC)cccc31)c1ccccc1S2 (stereo not drawn) [CLH666],,0.1 to 100
CC(C(=O)O)c1ccc2c(c1)C=C(OP(=O)(O)OC1=Cc3cc(C(C)C(=O)O)ccc3Sc3ccccc31)c1ccccc1S2 (stereo not drawn) [CLH680],,1000 to 10000
CCOC(=O)C(C)c1ccc2c(c1)C=C(OP(=O)(O)OC1=Cc3cc(C(C)C(=O)OCC)ccc3Sc3ccccc31)c1ccccc1S2 (stereo not drawn) [CLH736],,1000 to 10000
O=P(O)(O/C1=C/c2ccccc2CCc2ccccc21)O/C1=C/c2ccccc2CCc2ccccc21 [XYF528],,100 to 1000
O=P(O)(CC1=Cc2ccccc2Sc2ccccc21)CC1=Cc2ccccc2Sc2ccccc21 [XYF532],,1000 to 10000
O=P(O)(OC1=Cc2c(F)cccc2Cc2ccccc21)OC1=Cc2c(F)cccc2Cc2ccccc21 [XYF536c],,0.1 to 100
O=P(O)(OC1=Cc2c(F)cccc2Oc2ccccc21)OC1=Cc2c(F)cccc2Oc2ccccc21 [XYF540],,0.1 to 100
O=P(O)(OC1=Cc2ccsc2Sc2sccc21)OC1=Cc2ccsc2Sc2sccc21 [XYF560],,100 to 1000
COc1cccc2c1Oc1ccccc1C=C2OP(=O)(O)OC1=Cc2ccccc2Oc2c(OC)cccc21 [XYF564-2a],,0.1 to 100
Cc1ccc2c(c1)C(OP(=O)(O)OC1=Cc3ccccc3Sc3ccc(C)cc31)=Cc1ccccc1S2 [XYF564c],,0.1 to 100
O=P(O)(OC1=Cc2ccc(F)cc2Sc2ccccc21)OC1=Cc2ccc(F)cc2Sc2ccccc21 [XYF573],,100 to 1000
O=P(O)(OC1=Cc2cccc(F)c2Sc2ccccc21)OC1=Cc2cccc(F)c2Sc2ccccc21 [XYF573a],,100 to 1000
O=P(O)(OC1=Cc2cc(F)ccc2Sc2ccccc21)OC1=Cc2cc(F)ccc2Sc2ccccc21 [XYF573b],,0.1 to 100
O=P(O)(OC1=Cc2c(F)cccc2Sc2ccccc21)OC1=Cc2c(F)cccc2Sc2ccccc21 [XYF573c],,0.1 to 100
O=P(O)(OC1=Cc2cccc(Cl)c2Sc2ccccc21)OC1=Cc2cccc(Cl)c2Sc2ccccc21 [XYF604],,100 to 1000
O=P(O)(OC1=Cc2cc(Cl)ccc2Sc2ccccc21)OC1=Cc2cc(Cl)ccc2Sc2ccccc21 [XYF604b],,0.1 to 100
COc1cccc2c1SC1=C(C=C2OP(=O)(O)OC2=CC3=C(SCC3)Sc3c(OC)cccc32)CCS1 [XYF608],,0.1 to 100
CCc1cccc2c1Sc1cc(F)ccc1C=C2OP(=O)(O)OC1=Cc2ccc(F)cc2Sc2c(CC)cccc21 [XYF628],,1000 to 10000
CCc1cccc2c1Sc1c(F)cccc1C=C2OP(=O)(O)OC1=Cc2cccc(F)c2Sc2c(CC)cccc21 [XYF628a],,0.1 to 100
CCc1cccc2c1Sc1ccc(F)cc1C=C2OP(=O)(O)OC1=Cc2cc(F)ccc2Sc2c(CC)cccc21 [XYF628b],,100 to 1000
CCc1cccc2c1Sc1ccccc1C=C2OP(=O)(O)OC1=Cc2ccccc2Sc2c(CC)cccc21 [XYF628c],,0.1 to 100
COc1cccc2c1Sc1cc(F)ccc1C=C2OP(=O)(O)OC1=Cc2ccc(F)cc2Sc2c(OC)cccc21 [XYF632],,0.1 to 100
COc1cccc2c1Sc1c(F)cccc1C=C2OP(=O)(O)OC1=Cc2cccc(F)c2Sc2c(OC)cccc21 [XYF632a],,0.1 to 100
COc1cccc2c1Sc1ccc(F)cc1C=C2OP(=O)(O)OC1=Cc2cc(F)ccc2Sc2c(OC)cccc21 [XYF632b],,0.1 to 100
COc1cccc2c1Sc1cccc(F)c1C=C2OP(=O)(O)OC1=Cc2c(F)cccc2Sc2c(OC)cccc21 [XYF632c],,0.1 to 100
COc1ccc2c(c1)Sc1c(OC)cccc1C(OP(=O)(O)OC1=Cc3ccc(OC)cc3Sc3c(OC)cccc31)=C2 [XYF656],,0.1 to 100
COc1cccc2c1Sc1c(OC)cccc1C(OP(=O)(O)OC1=Cc3cccc(OC)c3Sc3c(OC)cccc31)=C2 [XYF656a],,100 to 1000
